Results taken from PubChem BioAssay (NCI).
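Exposure lasted 48 hours, with cells grown in 96-well plates and compounds tested at five concentrations. TGI is the concentration that stops growth completely.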 Calls of active or inactive are those of the source. Rule as the data show it: active = GI50 below about 0.43 µM; inactive = the rest.

Tests used:
Assay in all cases: inhibition of tumour cell growth, NCI panel, 48 h
[1] = tested on: 786-0 renal
[2] = tested on: A498 renal
[3] = tested on: A549 NSCLC
[4] = tested on: ACHN renal
[5] = tested on: BT-549 breast
[6] = tested on: CAKI-1 renal
[7] = tested on: CCRF-CEM leukemia
[8] = tested on: COLO 205 colon
[9] = tested on: DU-145 prostate
[10] = tested on: EKVX NSCLC
[11] = tested on: HCC-2998 colon
[12] = tested on: HCT-116 colon
[13] = tested on: HCT-15 colon
[14] = tested on: HL-60(TB) leukemia
[15] = tested on: HOP-62 NSCLC
[16] = tested on: HOP-92 NSCLC
[17] = tested on: HS 578T breast
[18] = tested on: HT29 colon
[19] = tested on: IGROV1 ovarian
[20] = tested on: K-562 leukemia
[21] = tested on: KM12 colon
[22] = tested on: LOX IMVI melanoma
[23] = tested on: M14 melanoma
[24] = tested on: MALME-3M melanoma
[25] = tested on: MCF7 breast
[26] = tested on: MDA-MB-231 breast
[27] = tested on: MDA-MB-435
[28] = tested on: MDA-N
[29] = tested on: MOLT-4 leukemia
[30] = tested on: NCI-H226 lung
[31] = tested on: NCI-H460 lung
[32] = tested on: NCI-H522 lung
[33] = tested on: NCI/ADR-RES ovarian
[34] = tested on: OVCAR-3 ovarian
[35] = tested on: OVCAR-4 ovarian
[36] = tested on: OVCAR-5 ovarian
[37] = tested on: OVCAR-8 ovarian
[38] = tested on: PC-3 prostate
[39] = tested on: RPMI-8226 leukemia
[40] = tested on: SF-295 CNS
[41] = tested on: SF-539 CNS
[42] = tested on: SK-MEL-2 melanoma
[43] = tested on: SK-MEL-28 melanoma
[44] = tested on: SK-MEL-5 melanoma
[45] = tested on: SK-OV-3 ovarian
[46] = tested on: SN12C renal
[47] = tested on: SNB-19 CNS
[48] = tested on: SNB-75 CNS
[49] = tested on: SR leukemia
[50] = tested on: SW-620 colon
[51] = tested on: T-47D breast
[52] = tested on: TK-10 renal
[53] = tested on: U251 CNS
[54] = tested on: UACC-257 melanoma
[55] = tested on: UACC-62 melanoma
[56] = tested on: UO-31 renal
[57] = tested on: NCI-H23 lung
[58] = tested on: SF-268 CNS

`O=C(O)CCN1CCN(CCC(=O)O)CCN(CCC(=O)O)CC1` was tested, and the TGI [1] was > 100 µM, the TGI [2] was > 100 µM and the TGI [3] was > 100 µM. The TGI [4] was > 100 µM, the TGI [5] was > 100 µM and the TGI [6] was > 100 µM. The TGI [7] was > 100 µM, the TGI [8] was > 100 µM and the TGI [9] was > 100 µM. The TGI [10] was > 100 µM, the TGI [11] was > 100 µM and the TGI [12] was > 100 µM. For the same compound, the TGI [13] was > 100 µM, the TGI [14] was 89.3 µM and the TGI [15] was > 100 µM. For the same compound, the TGI [16] was > 100 µM, the TGI [17] was > 100 µM and the TGI [18] was > 100 µM. The TGI [19] was > 100 µM, the TGI [20] was > 100 µM and the TGI [21] was > 100 µM. The TGI [22] was > 100 µM, the TGI [23] was > 100 µM and the TGI [24] was > 100 µM. The TGI [25] was > 100 µM, the TGI [26] was > 100 µM and the TGI [27] was > 100 µM. For the same compound, the TGI [28] was > 100 µM, the TGI [29] was > 100 µM and the TGI [30] was > 100 µM. The TGI [31] was > 100 µM, the TGI [32] was > 100 µM and the TGI [33] was > 100 µM. For the same compound, the TGI [34] was > 100 µM, the TGI [35] was > 100 µM and the TGI [36] was > 100 µM. For the same compound, the TGI [37] was > 100 µM, the TGI [38] was > 100 µM and the TGI [39] was > 100 µM. For the same compound, the TGI [40] was > 100 µM, the TGI [41] was > 100 µM and the TGI [42] was > 100 µM. For the same compound, the TGI [43] was > 100 µM, the TGI [44] was > 100 µM and the TGI [45] was > 100 µM. The TGI [46] was > 100 µM, the TGI [47] was > 100 µM and the TGI [48] was > 100 µM. The TGI [49] was > 100 µM, the TGI [50] was > 100 µM and the TGI [51] was > 100 µM. For the same compound, the TGI [52] was > 100 µM, the TGI [53] was > 100 µM and the TGI [54] was > 100 µM. The TGI [55] was > 100 µM and the TGI [56] was > 100 µM.

In the case of `COC(=O)c1cc2/c(=N/O)c3ccccc3sc2o1`, the TGI [1] is reported as > 100 µM, the TGI [2] is reported as > 100 µM and the TGI [3] is reported as > 100 µM. The TGI [4] was > 100 µM, the TGI [5] was > 100 µM and the TGI [6] was > 100 µM. For the same compound, the TGI [7] was > 100 µM, the TGI [8] was > 100 µM and the TGI [9] was > 100 µM. The TGI [10] was > 100 µM, the TGI [11] was > 100 µM and the TGI [12] was > 100 µM. For the same compound, the TGI [13] was > 100 µM, the TGI [14] was > 100 µM and the TGI [15] was > 100 µM. The TGI [16] was > 100 µM, the TGI [17] was > 100 µM and the TGI [18] was > 100 µM. The TGI [19] was > 100 µM, the TGI [20] was > 100 µM and the TGI [21] was > 100 µM. For the same compound, the TGI [22] was > 100 µM, the TGI [23] was > 100 µM and the TGI [24] was > 100 µM. For the same compound, the TGI [25] was > 100 µM, the TGI [26] was > 100 µM and the TGI [27] was > 100 µM. For the same compound, the TGI [28] was > 100 µM, the TGI [29] was > 100 µM and the TGI [30] was > 100 µM. The TGI [57] was > 100 µM, the TGI [31] was > 100 µM and the TGI [32] was > 100 µM. The TGI [33] was > 100 µM, the TGI [34] was > 100 µM and the TGI [35] was > 100 µM. For the same compound, the TGI [36] was > 100 µM, the TGI [37] was > 100 µM and the TGI [38] was > 100 µM. The TGI [39] was > 100 µM, the TGI [58] was > 100 µM and the TGI [40] was > 100 µM. The TGI [41] was > 100 µM, the TGI [42] was > 100 µM and the TGI [43] was > 100 µM. For the same compound, the TGI [44] was > 100 µM, the TGI [45] was > 100 µM and the TGI [46] was > 100 µM. For the same compound, the TGI [47] was > 100 µM, the TGI [48] was > 100 µM and the TGI [49] was > 100 µM. For the same compound, the TGI [50] was > 100 µM, the TGI [51] was > 100 µM and the TGI [52] was > 100 µM. The TGI [53] was > 100 µM, the TGI [54] was > 100 µM and the TGI [55] was > 100 µM.

In the case of `O=c1cc(-c2ccc(O)c(O)c2-c2c(O)cc(O)c3c(=O)cc(-c4ccc(O)c(O)c4)oc23)oc2cc(O)cc(O)c12`, the outcome [1] is reported as “inactive”, the outcome [2] is reported as “inactive” and the outcome [3] is reported as “inactive”. The outcome [4] was “inactive”, the outcome [5] was “inactive” and the outcome [6] was “inactive”. For the same compound, the outcome [7] was “inactive”, the outcome [8] was “inactive” and the outcome [9] was “inactive”. For the same compound, the outcome [10] was “inactive”, the outcome [11] was “inactive” and the outcome [12] was “inactive”. For the same compound, the outcome [13] was “inactive”, the outcome [14] was “inactive” and the outcome [15] was “inactive”. For the same compound, the outcome [16] was “inactive”, the outcome [17] was “inactive” and the outcome [18] was “inactive”. For the same compound, the outcome [19] was “inactive”, the outcome [20] was “inactive” and the outcome [21] was “inactive”. The outcome [22] was “inactive”, the outcome [23] was “inactive” and the outcome [24] was “inactive”. For the same compound, the outcome [25] was “inactive”, the outcome [26] was “inactive” and the outcome [27] was “inactive”. For the same compound, the outcome [28] was “inactive”, the outcome [29] was “inactive” and the outcome [30] was “inactive”. For the same compound, the outcome [57] was “inactive”, the outcome [32] was “inactive” and the outcome [33] was “inactive”. For the same compound, the outcome [34] was “inactive”, the outcome [35] was “inactive” and the outcome [36] was “inactive”. The outcome [37] was “inactive”, the outcome [38] was “inactive” and the outcome [39] was “inactive”. The outcome [58] was “inactive”, the outcome [40] was “inactive” and the outcome [41] was “inactive”. The outcome [42] was “inactive”, the outcome [43] was “inactive” and the outcome [44] was “inactive”. For the same compound, the outcome [45] was “inactive”, the outcome [46] was “inactive” and the outcome [47] was “inactive”. The outcome [48] was “inactive”, the outcome [49] was “inactive” and the outcome [50] was “inactive”. For the same compound, the outcome [51] was “inactive”, the outcome [52] was “inactive” and the outcome [53] was “inactive”. For the same compound, the outcome [54] was “inactive”, the outcome [55] was “inactive” and the outcome [56] was “inactive”.
